The results in this text go back to the supplement of paper PMC10307832.

Holding throughout (experiment): relative viability (nuclei count vs DMSO), 5 days (fraction); higher = more cells survive
One experiment deals with A549. Summed up:
(§1)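 Relative viability equals treated-well nuclei counts divided by vehicle-well nuclei counts. Counts came from 4× images of lung cancer cell lines grown in 1536-well plates for 5 days after pin-tool dosing on the day after seeding. Dosing used one drug alone or a fixed anchor-drug dose plus five library-drug doses (not always all listed) in √10 steps, and values are medians of duplicate plates.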

A further experiment relates to Calu-6. The essentials:
as §1

The test system of the next experiment is EBC-1. Summed up: as §1
The next experiment concerns IA-LM. The essentials:
as §1

Another experiment deals with NCI-H1299. The essentials: as §1
A further experiment relates to NCI-H1703. The essentials: as §1
The subject of the next experiment is NCI-H2126. Summed up: as §1

Regarding `CC(C)Oc1cc(Nc2nc(N[C@@H](C)c3ccc(F)cn3)ncc2Cl)n[nH]1` [AZ23] + CS(=O)(=O)N1CCN(Cc2cc3nc(-c4cccc5[nH]ncc45)nc(N4CCOCC4)c3s2)CC1 [Pictilisib] (partner 1 µM), the relative viability in the experiment on A549 (first compound 0.01 µM) was found to be 0.586; in the experiment with A549 (first compound 0.03162 µM), 0.676; with A549 (first compound 0.3162 µM), 0.416; with Calu-6 (first compound 0.01 µM), 0.883; in the experiment on Calu-6 (first compound 0.03162 µM), 1.13; with Calu-6 (first compound 0.3162 µM), 0.986. The relative viability in the experiment on EBC-1 (first compound 0.01 µM) came out at 0.312; in the experiment on EBC-1 (first compound 0.03162 µM) it was 0.397; in the experiment on EBC-1 (first compound 0.3162 µM) it was 0.345; with IA-LM (first compound 0.01 µM), 0.403; in the experiment on IA-LM (first compound 0.03162 µM) it was 0.334; with IA-LM (first compound 0.3162 µM) it was 0.419. The relative viability amounted to 0.954 in the experiment on NCI-H1299 (first compound 0.03162 µM); 1.13 in the experiment with NCI-H1299 (first compound 0.3162 µM); 0.291 in the experiment on NCI-H1703 (first compound 0.03162 µM); 0.218 with NCI-H1703 (first compound 0.3162 µM); 0.485 with NCI-H2126 (first compound 0.01 µM); 0.514 with NCI-H2126 (first compound 0.03162 µM). In the experiment with NCI-H2126 (first compound 0.3162 µM), this molecule came in with a relative viability of 0.452.
Take `CC(C)Oc1cc(Nc2nc(N[C@@H](C)c3ccc(F)cn3)ncc2Cl)n[nH]1` [AZ23] + C[C@@H](Oc1cc(-c2cnn(C3CCNCC3)c2)cnc1N)c1c(Cl)ccc(F)c1Cl [Crizotinib] (partner 1 µM): the relative viability amounted to 1.08 with A549 (first compound 0.01 µM); 1.03 in the experiment on A549 (first compound 0.03162 µM); 0.943 in the experiment on A549 (first compound 0.3162 µM); 0.987 with Calu-6 (first compound 0.03162 µM); 0.974 in the experiment on Calu-6 (first compound 0.3162 µM); 0.196 in the experiment on EBC-1 (first compound 0.03162 µM). The relative viability was determined as 0.185 with EBC-1 (first compound 0.3162 µM); 0.919 in the experiment with IA-LM (first compound 0.01 µM); 0.824 in the experiment on IA-LM (first compound 0.03162 µM); 0.813 with IA-LM (first compound 0.3162 µM); 1.06 with NCI-H1299 (first compound 0.01 µM); 1.01 with NCI-H1299 (first compound 0.03162 µM). Also, the relative viability in the experiment on NCI-H1299 (first compound 0.3162 µM) turned out to be 1.08; in the experiment on NCI-H1703 (first compound 0.01 µM), 0.51; with NCI-H1703 (first compound 0.03162 µM) it was 0.761; in the experiment on NCI-H1703 (first compound 0.3162 µM) it was 0.626; with NCI-H2126 (first compound 0.01 µM) it was 1.24; with NCI-H2126 (first compound 0.03162 µM), 1.11. Besides, the relative viability in the experiment with NCI-H2126 (first compound 0.3162 µM) came out at 1.05.
Take `CC(C)Oc1cc(Nc2nc(N[C@@H](C)c3ccc(F)cn3)ncc2Cl)n[nH]1` [AZ23] + C[C@]1(O)C[C@@H](c2nc(-c3ccc4ccc(-c5ccccc5)nc4c3)c3c(N)nccn32)C1 [Linsitinib] (partner 1 µM): the relative viability in the experiment with A549 (first compound 0.01 µM) was 0.659; in the experiment on A549 (first compound 0.03162 µM), 0.572; in the experiment on A549 (first compound 0.3162 µM), 0.701; with Calu-6 (first compound 0.03162 µM) it was 1.01; in the experiment on Calu-6 (first compound 0.3162 µM), 0.953; in the experiment with EBC-1 (first compound 0.01 µM) it was 1.1. Also, the relative viability turned out to be 0.836 in the experiment on EBC-1 (first compound 0.03162 µM); 1.07 in the experiment on EBC-1 (first compound 0.3162 µM); 0.601 in the experiment on IA-LM (first compound 0.01 µM); 0.386 with IA-LM (first compound 0.03162 µM); 0.627 in the experiment on IA-LM (first compound 0.3162 µM); 0.977 in the experiment on NCI-H1299 (first compound 0.01 µM). Further, the relative viability is 0.99 in the experiment on NCI-H1299 (first compound 0.03162 µM); 1.09 in the experiment with NCI-H1299 (first compound 0.3162 µM); 0.647 with NCI-H1703 (first compound 0.03162 µM); 0.592 with NCI-H1703 (first compound 0.3162 µM); 0.737 in the experiment with NCI-H2126 (first compound 0.01 µM); 0.739 in the experiment with NCI-H2126 (first compound 0.03162 µM). Moreover, in the experiment with NCI-H2126 (first compound 0.3162 µM), the relative viability was determined as 0.684.
With `CC(C)Oc1cc(Nc2nc(N[C@@H](C)c3ccc(F)cn3)ncc2Cl)n[nH]1` [AZ23] + Cc1nc(NC(=O)N2CCC[C@H]2C(N)=O)sc1-c1ccnc(C(C)(C)C(F)(F)F)c1 [Alpelisib] (partner 2 µM), the relative viability amounted to 0.738 in the experiment with A549 (first compound 0.01 µM); 0.758 with A549 (first compound 0.03162 µM); 0.716 with A549 (first compound 0.3162 µM); 1.12 in the experiment on Calu-6 (first compound 0.03162 µM); 1.11 with Calu-6 (first compound 0.3162 µM); 0.826 with EBC-1 (first compound 0.01 µM). Besides, the relative viability came to 0.869 in the experiment on EBC-1 (first compound 0.03162 µM); 0.859 with EBC-1 (first compound 0.3162 µM); 0.729 with IA-LM (first compound 0.01 µM); 0.98 with IA-LM (first compound 0.03162 µM); 0.943 with IA-LM (first compound 0.3162 µM); 1.16 with NCI-H1299 (first compound 0.01 µM). Besides, the relative viability with NCI-H1299 (first compound 0.03162 µM) was determined as 1.09; in the experiment on NCI-H1299 (first compound 0.3162 µM), 1.23; in the experiment with NCI-H1703 (first compound 0.03162 µM) it was 0.434; in the experiment on NCI-H1703 (first compound 0.3162 µM), 0.308; with NCI-H2126 (first compound 0.01 µM) it was 0.768; in the experiment on NCI-H2126 (first compound 0.03162 µM), 0.698. In the experiment with NCI-H2126 (first compound 0.3162 µM), this molecule gave a relative viability of 0.769.
Turning to `COc1cc(N2CCC(C(N)=O)CC2)ccc1Nc1nc(N)c(Cl)c(Nc2ccccc2S(=O)(=O)C(C)C)n1` [HG-5-88-01] + CC1(C)CCC(c2ccc(Cl)cc2)=C(CN2CCN(c3ccc(C(=O)NS(=O)(=O)c4ccc(N[C@H](CCN5CCOCC5)CSc5ccccc5)c(S(=O)(=O)C(F)(F)F)c4)cc3)CC2)C1 [Navitoclax] (partner 0.5 µM), the relative viability with A549 (first compound 0.04 µM) worked out at 1.23; in the experiment on A549 (first compound 0.1265 µM) it was 1.21; with A549 (first compound 0.4 µM) it was 1.07; in the experiment with A549 (first compound 1.265 µM) it was 0.87; in the experiment on A549 (first compound 4 µM) it was 0.687; in the experiment on Calu-6 (first compound 0.04 µM), 0.958. Besides, the relative viability with Calu-6 (first compound 0.1265 µM) turned out to be 0.86; in the experiment on Calu-6 (first compound 0.4 µM), 0.717; in the experiment on Calu-6 (first compound 1.265 µM), 0.693; in the experiment with Calu-6 (first compound 4 µM) it was 0.46; in the experiment with EBC-1 (first compound 0.04 µM), 0.407; with EBC-1 (first compound 0.1265 µM), 0.457. Besides, the relative viability came out at 0.427 in the experiment with EBC-1 (first compound 0.4 µM); 0.241 in the experiment with EBC-1 (first compound 1.265 µM); 0.217 in the experiment on EBC-1 (first compound 4 µM); 0.835 with IA-LM (first compound 0.04 µM); 0.794 in the experiment on IA-LM (first compound 0.1265 µM); 0.731 with IA-LM (first compound 0.4 µM). The relative viability turned out to be 0.825 with IA-LM (first compound 1.265 µM); 0.802 in the experiment with IA-LM (first compound 4 µM); 1.03 with NCI-H1299 (first compound 0.04 µM); 1.08 with NCI-H1299 (first compound 0.1265 µM); 1.03 in the experiment on NCI-H1299 (first compound 0.4 µM); 1.06 with NCI-H1299 (first compound 1.265 µM). Also, the relative viability in the experiment on NCI-H1299 (first compound 4 µM) was 1.02; in the experiment on NCI-H1703 (first compound 0.04 µM), 0.719; in the experiment with NCI-H1703 (first compound 0.1265 µM), 1.22; in the experiment with NCI-H1703 (first compound 0.4 µM), 1.2; in the experiment with NCI-H1703 (first compound 1.265 µM) it was 0.926; in the experiment on NCI-H1703 (first compound 4 µM), 0.762. For the same molecule, the relative viability in the experiment on NCI-H2126 (first compound 0.04 µM) came out at 0.88; in the experiment on NCI-H2126 (first compound 0.1265 µM) it was 0.882; in the experiment with NCI-H2126 (first compound 0.4 µM), 0.753; in the experiment on NCI-H2126 (first compound 1.265 µM), 0.84; with NCI-H2126 (first compound 4 µM), 0.794.
